Measured values from patent US5571687A, “Modulators of multidrug resistance transporters” (Duke University, priority 1994, dated 1996).
Read-outs that look alike come from different tables or passages of the source. Blank lines part the entries; values can stand above or below the compound they belong to.

Assays:
[1] = biological target: P-glycoprotein (human MDR1 expressed in Sf9 cells) (Homo sapiens, UniProt P08183, G185V); test: P-gp-associated ATPase activity (vanadate-sensitive release of inorganic phosphate from ATP), stimulation, membranes of Sf9 cells expressing human MDR1
From the text: (§1) physiologic and non-physiologic compounds, including prenylcysteines and analogs thereof, can be tested in vitro for their ability to serve as P-gp substrates (and thus modulators of MDR transporter activity), both in terms of stimulating the intrinsic ATPase activity of the transporter and competing for drug binding. Insect cells (eg Sf9 cells) infected with baculovirus containing MDR1 cDNA (available from the American Type Culture Collection, Rockville, Md.) can be used as a source of membranes suitable for use in such in vitro screens. Membranes from drug-induced resistant cells can also be used (eg, MCF7-MDR breast cancer cells). Details of an appropriate protocol for testing compounds for their ability to stimulate P-gp-associated ATPase are given in the Examples. The method described involves incubating MDR transporter-containing membranes with the test compound and measuring the level of vanadate sensitive release of inorganic phosphate from ATP (see Sarkadi et al, J. Biol. Chem. 267:4854 (1992)).
Sf9 cells were grown in Grace's insect culture media supplemented with 10% fetal bovine serum (HyClone), 0.1% Pluronic F-68, 100 unit/ml penicillin and 100 μg/ml streptomycin. Sf9 cells were infected with baculovirus according to established procedures (O'Reilly et al, Baculovirus Expression Vectors--A Laboratory Manual, New York: W.H. Freeman & Co. (1992)). Recombinant baculovirus containing the human MDR1V185 cDNA (Germann et al, Biochemistry 29:2295 (1990)) was provided by Dr. M. Gottesman (MDR1 cDNAs are available from the American Type Culture Collection, Rockville, Md.). Mock-infection was carried out using recombinant baculovirus containing the cDNA encoding a protein prenyltransferase. […] These cells were grown in Iscove's Modified Dulbecco's Media (MDM) supplemented with 10% fetal bovine serum. The MCF7-MDR cells were exposed to 10 μM doxorubicin every 8-10 passages to maintain the drug-resistant phenotype.
Sf9 membranes were prepared from cells harvested 3 days after infection with specified baculovirus as described (Sarkadi et al, J. Biol. Chem. 267:4854 (1992)). MCF7 membranes from both wild-type and drug-resistant cell lines were prepared by nitrogen cavitation procedures (Cornwell et al, J. Biol. Chem. 261:7921 (1986)), flash-frozen in liquid nitrogen, and stored at -80° C. until use.
P-gp-associated ATPase activity was measured by determining vanadate-sensitive release of inorganic phosphate from ATP as described (Sarkadi et al, J. Biol. Chem. 267:4854 (1992)). Sf9 membranes containing 5-10 μg protein were incubated in 100 μl of 50 mM Mes-Tris, pH 6.8, 50 mM KCl, 2 mM DTT, 2 mM EGTA, 1 mM ouabain, 5 mM sodium azide, 5 mM Mg/ATP. P-gp-associated ATPase activity in MCF7-MDR cells was measured using the same condition except that 50 mM Mes-Tris, pH 6.8 was replaced by 50 mM Tris-HCl, pH 7.5. […] Reactions were conducted at 37° C. for 20 min.

P-gp = P-gp (Homo sapiens, UniProt P08183, G185V); test: Inhibition of basal and drug-stimulated P-gp ATPase activity; assay type: biochemical
From the text: FIG. 3. Ability of acetyl farnesyl methylester (AFCME) to block drug stimulated ATPase of MDR.
FIG. 4. Interaction of prenylcysteine methylamides and prenylcysteine-containing dipeptides with P-gp. The compounds were purified by reversephase HPLC chromatography and analyzed for their ability to stimulate the ATPase activity of P-gp in Sf9 membranes and, in the case of AFCMA, to inhibit FCME-stimulated ATPase activity as described for AFCME in Example 4. Left panel--Stimulation of P-gp ATPase activity in Sf9 membranes. Increasing concentration of FCMA (.box-solid.), farnesylated γGlu-Cys (unmethylated F-dipeptide, Δ), and the methylated form of farnesylated γGlu-Cys (methylated F-dipeptide, .tangle-solidup.) were analyzed. Right panel AFCMA inhibition of P-gp ATPase activity in Sf9 membranes. Increasing concentrations of AFCMA were added to membranes from Sf9 cells expressing P-gp either with no added drug (.largecircle.) or along with 20 μM […] as an ATPase stimulator (.circle-solid.).
The ATPase assay can also be used to identify test compounds that inhibit P-gp activity, ie P-gp antagonists, which are also potential agents for reversing P-gp-mediated drug resistance. In this type of assay, the ability of a selected test compound to reduce P-gp-ATPase which has been stimulated by a drug known to elicit this activity (eg verapimil or farnesylcysteine methyl ester (FCME) is examined. Increasing concentrations of the selected test compound and a fixed amount of the stimulatory drug are mixed, added to the P-gp preparation, and ATPase activity determined. A dose-dependent inhibition of ATPase activity by the selected compound indicates an antagonist.
Reactions were conducted at 37° C. for 20 min.

[2] = biological target: native P-gp expressed in the drug-resistant human breast cancer cell line MCF7-MDR (Homo sapiens, UniProt P08183); settings: mcf7-mdr membranes, 20 min
From the text: as §1, with “(1992)). […]” for “(1992)).”
P-gp-associated ATPase activity was measured by determining vanadate-sensitive release of inorganic phosphate from ATP as described (Sarkadi et al, J. Biol. Chem. 267:4854 (1992)). […] P-gp-associated ATPase activity in MCF7-MDR cells was measured using the same condition except that 50 mM Mes-Tris, pH 6.8 was replaced by 50 mM Tris-HCl, pH 7.5. […]

[3] = read-out: maximum stimulation of P-gp ATPase

concentration at which the transporter's basal ATPase activity is inhibited (P-gp; basal ATPase activity): > 20 µM
stimulation of ATPase activity at low concentrations (in words) (P-gp; low (<20 μM) concentrations, preliminary analysis): weak stimulation of the ATPase activity
SMILES: COC(=O)[C@H](CSCC=C(C)CCC=C(C)CCC=C(C)C)NC(C)=O [AFCME, N-acetyl-S-farnesylcysteine methyl ester]
ATPase stimulation (in words) [1]: essentially abolished its stimulatory effect
blocking of basal and drug (FCME, verapamil)-stimulated ATPase activity (in words) (P-gp; dose-dependent, FIG. 3): can block both the basal and drug-stimulated ATPase activities of P-gp in a dose-dependent fashion
inhibition of basal ATPase activity (in words) (P-gp; higher concentrations (above 20 μM), preliminary analysis): marked inhibition of even the basal ATPase activity

stimulation of P-gp ATPase activity (in words) [1]: potent in stimulation
SMILES: CNC(=O)C(N)CSCC=C(C)CCC=C(C)CCC=C(C)C (stereo not drawn) [FCMA]

concentration of maximum stimulation of P-gp ATPase [1]: 10 to 20 µM
Emax ([1]; read-out: Maximal stimulation of ATPase activity): ~450%
Emax [1, 3]: 400 to 500%
increase of P-gp-catalyzed ATP hydrolysis [2]: ~ 2.5 fold
SMILES: COC(=O)[C@@H](N)CSC/C=C(\C)CC/C=C(\C)CCC=C(C)C [FCME, S-farnesylcysteine methyl ester]
stimulation of P-gp ATPase activity (in words) [1]: stimulated this activity in a fashion very similar to that of verapamil

ATPase stimulation (in words) [1]: ineffective
SMILES: CC(C)=CCCC(C)=CCCC(C)=CCO [FOH, Farnesol, reference compound]

concentration of maximum stimulation of P-gp ATPase [1]: 10 to 20 µM
Emax [1, 3]: 400 to 500%
increase of P-gp-catalyzed ATP hydrolysis [2]: ~ 2.5 fold
SMILES: COC(=O)[C@@H](N)CSC/C=C(\C)CC/C=C(\C)CC/C=C(\C)CCC=C(C)C [GGCME, S-geranylgeranylcysteine methyl ester]
stimulation of P-gp ATPase activity (in words) [1]: stimulated this activity in a fashion very similar to that of verapamil

Second part, the compound before the results:

SMILES: CC(=O)N[C@@H](CSCC=C(C)CCC=C(C)CCC=C(C)C)C(=O)O [AFC, N-acetyl-S-farnesylcysteine]
ATPase stimulation (in words) [1]: did not stimulate the transporter's ATPase activity

SMILES: CNC(=O)C(CSCC=C(C)CCC=C(C)CCC=C(C)C)NC(C)=O (stereo not drawn) [AFCMA]
inhibition of drug-stimulated P-gp ATPase activity (in words) (P-gp; Sf9 membranes, FIG. 4 right panel): potent in stimulation (FCMA) and inhibition of drug-stimulated (AFCMA) P-gp ATPase activities

SMILES: CC(C)=CCCC(C)=CCCC(C)=CCSC[C@H](NC(=O)CC[C@H](N)C(=O)O)C(=O)O [F-γGlu- Cys]
stimulation of P-gp ATPase activity (in words) [1]: stimulate P-gp ATPase activity in a methylation-dependent fashion

SMILES: CC(C)=CCCC(C)=CCCC(C)=CCSC[C@H](N)C(=O)O [FC, S-farnesylcysteine]
stimulation of P-gp ATPase activity (in words) [1]: ineffective in stimulating the ATPase of P-gp

SMILES: CC(C)=CCC/C(C)=C/CC/C(C)=C/CC/C(C)=C/CSC[C@H](N)C(=O)O [GGC, S-geranylgeranylcysteine]
stimulation of P-gp ATPase activity (in words) [1]: ineffective in stimulating the ATPase of P-gp
